Reference: ChEMBL document CHEMBL1268882, “Synthesis and biological evaluation of novel triptolide analogues for anticancer activity” (Bioorg Med Chem Lett, 2010)

Assays:
SK-OV-3 = assay: Antiproliferative activity against human SKOV3 cells after 72 hrs by SRB assay; type: functional, cell-based; details: SK-OV-3, 72 h
PC-3 = assay: Antiproliferative activity against human PC3 cells after 72 hrs by SRB assay; type: functional, cell-based; details: PC-3, 72 h

SMILES	IC50 (SK-OV-3)	IC50 (PC-3)
CC(C)[C@]12O[C@H]1C=C1[C@]3(O[C@H]3C[C@H]3C4=C(CC[C@]13C)C(=O)OC4)C2=O	3 nM	2.7 µM
CC(C)[C@]12O[C@H]1C=C1[C@]3(O[C@H]3C[C@H]3C4=C(CC[C@]13C)C(=O)OC4)[C@@H]2O	0.05 nM	0.01 µM
CC(C)[C@]12O[C@H]1C=C1[C@]3(O[C@H]3C[C@H]3C4=C(CC[C@]13C)C(=O)OC4)[C@H]2O	500 nM	29 µM
CC(C)[C@]12O[C@H]1[C@H](O)[C@@]1(O)[C@@]3(C)CCC4=C(COC4=O)[C@@H]3C[C@@H]3O[C@@]31C2=O	> 100000 nM	> 100 µM
CC(C)[C@]12O[C@H]1C=C1[C@]3(O[C@H]3C[C@H]3C4=C(CC[C@]13C)C(=O)NC4)C2=O	20 nM	0.9 µM
CC(C)[C@]12O[C@H]1[C@@H]1O[C@@]13[C@@]1(C)CCC4=C(CNC4=O)[C@@H]1C[C@@H]1O[C@@]13C2=O	20 nM	14 µM
CC(C)[C@@]12O[C@@H]1C=C1[C@]3(O[C@H]3C[C@@H]3C4=C(CC[C@]13C)C(=O)OC4)C2=O	95000 nM	> 100 µM
CC(C)[C@]12O[C@H]1C=C1[C@]3(O[C@H]3C[C@@H]3C4=C(CC[C@]13C)C(=O)OC4)C2=O	66000 nM	29 µM
CC(C)[C@@]12O[C@@H]1[C@H]1O[C@]13[C@@]1(C)CCC4=C(COC4=O)[C@H]1C[C@@H]1O[C@@]13C2=O	> 100000 nM	> 100 µM
CC(C)[C@]12O[C@H]1[C@H]1O[C@]13[C@@]1(C)CCC4=C(COC4=O)[C@H]1C[C@@H]1O[C@@]13C2=O	> 100000 nM	> 100 µM
CC(C)[C@]12O[C@H]1C=C1[C@]3(O[C@H]3C[C@@H]3C4=C(CC[C@]13C)C(=O)OC4)[C@@H]2O	> 100000 nM	> 100 µM
CC(C)[C@]12O[C@H]1[C@H]1O[C@]13[C@@]1(C)CCC4=C(COC4=O)[C@H]1C[C@H]1O[C@@]13C2=O	4600 nM	> 100 µM
CC(C)[C@@]12O[C@@H]1C=C1[C@]3(O[C@@H]3C[C@@H]3C4=C(CC[C@]13C)C(=O)OC4)[C@@H]2O	56000 nM	> 100 µM
CC(C)[C@]12O[C@H]1[C@@H]1O[C@]13[C@]1(O[C@H]1C[C@H]1C4=C(CC[C@@]13C)C(=O)OC4)[C@@H]2O [TRIPTOLIDE]	6 nM	–
CC(C)[C@]12O[C@H]1[C@@H]1O[C@@]13[C@@]1(C)CCC4=C(COC4=O)[C@@H]1C[C@@H]1O[C@@]13C2=O [TRIPTONIDE]	8 nM	0.6 µM
